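Results reflect a 48-hour exposure of cells in 96-well plates to compound at five concentrations. TGI: concentration producing complete growth inhibition.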
Tests used:
Test in all cases: NCI anticancer screen, dose series, 48 h
786-0 renal = system: 786-0 renal
A549 NSCLC = system: A549 NSCLC
ACHN renal = system: ACHN renal
BT-549 breast = system: BT-549 breast
CAKI-1 renal = system: CAKI-1 renal
CCRF-CEM leukemia = system: CCRF-CEM leukemia
COLO 205 colon = system: COLO 205 colon
DU-145 prostate = system: DU-145 prostate
EKVX NSCLC = system: EKVX NSCLC
HCT-116 colon = system: HCT-116 colon
HCT-15 colon = system: HCT-15 colon
HL-60(TB) leukemia = system: HL-60(TB) leukemia
HOP-92 NSCLC = system: HOP-92 NSCLC
HS 578T breast = system: HS 578T breast
HT29 colon = system: HT29 colon
IGROV1 ovarian = system: IGROV1 ovarian
KM12 colon = system: KM12 colon
M14 melanoma = system: M14 melanoma
MALME-3M melanoma = system: MALME-3M melanoma
MCF7 breast = system: MCF7 breast
MDA-MB-231 breast = system: MDA-MB-231 breast
MDA-MB-435 = system: MDA-MB-435
MDA-N = system: MDA-N
NCI-H226 lung = system: NCI-H226 lung
NCI-H23 lung = system: NCI-H23 lung
NCI-H460 lung = system: NCI-H460 lung
NCI-H522 lung = system: NCI-H522 lung
NCI/ADR-RES ovarian = system: NCI/ADR-RES ovarian
OVCAR-5 ovarian = system: OVCAR-5 ovarian
OVCAR-8 ovarian = system: OVCAR-8 ovarian
PC-3 prostate = system: PC-3 prostate
RPMI-8226 leukemia = system: RPMI-8226 leukemia
RXF 393 renal = system: RXF 393 renal
SF-268 CNS = system: SF-268 CNS
SF-295 CNS = system: SF-295 CNS
SF-539 CNS = system: SF-539 CNS
SK-MEL-2 melanoma = system: SK-MEL-2 melanoma
SK-MEL-5 melanoma = system: SK-MEL-5 melanoma
SK-OV-3 ovarian = system: SK-OV-3 ovarian
SN12C renal = system: SN12C renal
SNB-19 CNS = system: SNB-19 CNS
SNB-75 CNS = system: SNB-75 CNS
SW-620 colon = system: SW-620 colon
T-47D breast = system: T-47D breast
TK-10 renal = system: TK-10 renal
U251 CNS = system: U251 CNS
UACC-257 melanoma = system: UACC-257 melanoma
UACC-62 melanoma = system: UACC-62 melanoma
UO-31 renal = system: UO-31 renal
A498 renal = system: A498 renal
HCC-2998 colon = system: HCC-2998 colon
HOP-62 NSCLC = system: HOP-62 NSCLC
K-562 leukemia = system: K-562 leukemia
LOX IMVI melanoma = system: LOX IMVI melanoma
MOLT-4 leukemia = system: MOLT-4 leukemia
OVCAR-3 ovarian = system: OVCAR-3 ovarian
OVCAR-4 ovarian = system: OVCAR-4 ovarian
SK-MEL-28 melanoma = system: SK-MEL-28 melanoma

Nc1cccc2nnccc12
TGI (786-0 renal): > 100 µM | TGI (A549 NSCLC): > 100 µM | TGI (ACHN renal): > 100 µM | TGI (BT-549 breast): > 100 µM | TGI (CAKI-1 renal): > 100 µM | TGI (CCRF-CEM leukemia): > 100 µM | TGI (COLO 205 colon): > 100 µM | TGI (DU-145 prostate): > 100 µM | TGI (EKVX NSCLC): > 100 µM | TGI (HCT-116 colon): > 100 µM | TGI (HCT-15 colon): > 100 µM | TGI (HL-60(TB) leukemia): > 100 µM | TGI (HOP-92 NSCLC): > 100 µM | TGI (HS 578T breast): > 100 µM | TGI (HT29 colon): > 100 µM | TGI (IGROV1 ovarian): > 100 µM | TGI (KM12 colon): > 100 µM | TGI (M14 melanoma): > 100 µM | TGI (MALME-3M melanoma): > 100 µM | TGI (MCF7 breast): > 100 µM | TGI (MDA-MB-231 breast): > 100 µM | TGI (MDA-MB-435): > 100 µM | TGI (MDA-N): > 100 µM | TGI (NCI-H226 lung): > 100 µM | TGI (NCI-H23 lung): > 100 µM | TGI (NCI-H460 lung): > 100 µM | TGI (NCI-H522 lung): > 100 µM | TGI (NCI/ADR-RES ovarian): > 100 µM | TGI (OVCAR-5 ovarian): > 100 µM | TGI (OVCAR-8 ovarian): > 100 µM | TGI (PC-3 prostate): > 100 µM | TGI (RPMI-8226 leukemia): > 100 µM | TGI (RXF 393 renal): > 100 µM | TGI (SF-268 CNS): > 100 µM | TGI (SF-295 CNS): > 100 µM | TGI (SF-539 CNS): > 100 µM | TGI (SK-MEL-2 melanoma): > 100 µM | TGI (SK-MEL-5 melanoma): > 100 µM | TGI (SK-OV-3 ovarian): > 100 µM | TGI (SN12C renal): > 100 µM | TGI (SNB-19 CNS): > 100 µM | TGI (SNB-75 CNS): > 100 µM | TGI (SW-620 colon): > 100 µM | TGI (T-47D breast): > 100 µM | TGI (TK-10 renal): > 100 µM | TGI (U251 CNS): > 100 µM | TGI (UACC-257 melanoma): > 100 µM | TGI (UACC-62 melanoma): > 100 µM | TGI (UO-31 renal): > 100 µM

Cc1cc2c(O)c(c1)CN(Cc1ccccc1)Cc1cc(C)cc(c1O)CN(Cc1ccccc1)Cc1cc(C)cc(c1O)CN(Cc1ccccc1)C2
TGI (786-0 renal): > 100 µM | TGI (A498 renal): > 100 µM | TGI (A549 NSCLC): > 100 µM | TGI (ACHN renal): > 100 µM | TGI (BT-549 breast): > 100 µM | TGI (CAKI-1 renal): > 100 µM | TGI (CCRF-CEM leukemia): > 100 µM | TGI (COLO 205 colon): > 100 µM | TGI (DU-145 prostate): > 100 µM | TGI (HCC-2998 colon): > 100 µM | TGI (HCT-116 colon): > 100 µM | TGI (HCT-15 colon): > 100 µM | TGI (HL-60(TB) leukemia): > 100 µM | TGI (HOP-62 NSCLC): > 100 µM | TGI (HS 578T breast): > 100 µM | TGI (HT29 colon): > 100 µM | TGI (IGROV1 ovarian): > 100 µM | TGI (K-562 leukemia): > 100 µM | TGI (KM12 colon): > 100 µM | TGI (LOX IMVI melanoma): > 100 µM | TGI (M14 melanoma): > 100 µM | TGI (MALME-3M melanoma): > 100 µM | TGI (MCF7 breast): > 100 µM | TGI (MDA-MB-231 breast): > 100 µM | TGI (MDA-MB-435): > 100 µM | TGI (MDA-N): > 100 µM | TGI (MOLT-4 leukemia): > 100 µM | TGI (NCI-H226 lung): > 100 µM | TGI (NCI-H23 lung): > 100 µM | TGI (NCI-H460 lung): > 100 µM | TGI (NCI-H522 lung): > 100 µM | TGI (NCI/ADR-RES ovarian): > 100 µM | TGI (OVCAR-3 ovarian): > 100 µM | TGI (OVCAR-4 ovarian): > 100 µM | TGI (OVCAR-5 ovarian): > 100 µM | TGI (OVCAR-8 ovarian): > 100 µM | TGI (PC-3 prostate): > 100 µM | TGI (RPMI-8226 leukemia): > 100 µM | TGI (RXF 393 renal): > 100 µM | TGI (SF-268 CNS): > 100 µM | TGI (SF-295 CNS): > 100 µM | TGI (SF-539 CNS): > 100 µM | TGI (SK-MEL-2 melanoma): 95.2 µM | TGI (SK-MEL-28 melanoma): > 100 µM | TGI (SK-MEL-5 melanoma): > 100 µM | TGI (SK-OV-3 ovarian): > 100 µM | TGI (SN12C renal): > 100 µM | TGI (SNB-19 CNS): > 100 µM | TGI (SNB-75 CNS): > 100 µM | TGI (SW-620 colon): > 100 µM | TGI (T-47D breast): > 100 µM | TGI (TK-10 renal): > 100 µM | TGI (U251 CNS): > 100 µM | TGI (UACC-257 melanoma): > 100 µM | TGI (UACC-62 melanoma): > 100 µM | TGI (UO-31 renal): > 100 µM

O=S(=O)(c1ccc(Cl)cc1)c1ccccc1C1=NCCN1
TGI (786-0 renal): > 100 µM | TGI (A549 NSCLC): > 100 µM | TGI (ACHN renal): > 100 µM | TGI (BT-549 breast): > 100 µM | TGI (CAKI-1 renal): > 100 µM | TGI (CCRF-CEM leukemia): > 100 µM | TGI (COLO 205 colon): > 100 µM | TGI (DU-145 prostate): > 100 µM | TGI (EKVX NSCLC): > 100 µM | TGI (HCC-2998 colon): > 100 µM | TGI (HCT-116 colon): > 100 µM | TGI (HCT-15 colon): > 100 µM | TGI (HL-60(TB) leukemia): > 100 µM | TGI (HOP-62 NSCLC): > 100 µM | TGI (HS 578T breast): > 100 µM | TGI (HT29 colon): > 100 µM | TGI (IGROV1 ovarian): > 100 µM | TGI (K-562 leukemia): > 100 µM | TGI (KM12 colon): > 100 µM | TGI (M14 melanoma): > 100 µM | TGI (MALME-3M melanoma): > 100 µM | TGI (MCF7 breast): > 100 µM | TGI (MDA-MB-231 breast): > 100 µM | TGI (MDA-MB-435): > 100 µM | TGI (MDA-N): > 100 µM | TGI (MOLT-4 leukemia): > 100 µM | TGI (NCI-H226 lung): > 100 µM | TGI (NCI-H23 lung): > 100 µM | TGI (NCI-H460 lung): > 100 µM | TGI (NCI/ADR-RES ovarian): > 100 µM | TGI (OVCAR-3 ovarian): > 100 µM | TGI (OVCAR-4 ovarian): > 100 µM | TGI (OVCAR-5 ovarian): > 100 µM | TGI (OVCAR-8 ovarian): > 100 µM | TGI (PC-3 prostate): > 100 µM | TGI (RPMI-8226 leukemia): > 100 µM | TGI (RXF 393 renal): > 100 µM | TGI (SF-268 CNS): > 100 µM | TGI (SF-295 CNS): > 100 µM | TGI (SK-MEL-2 melanoma): > 100 µM | TGI (SK-MEL-28 melanoma): > 100 µM | TGI (SK-MEL-5 melanoma): > 100 µM | TGI (SK-OV-3 ovarian): > 100 µM | TGI (SN12C renal): > 100 µM | TGI (SNB-19 CNS): > 100 µM | TGI (SNB-75 CNS): > 100 µM | TGI (SW-620 colon): > 100 µM | TGI (T-47D breast): > 100 µM | TGI (TK-10 renal): > 100 µM | TGI (U251 CNS): > 100 µM | TGI (UACC-257 melanoma): > 100 µM | TGI (UACC-62 melanoma): > 100 µM | TGI (UO-31 renal): > 100 µM

— PubChem BioAssay (NCI)
